Assay results taken from PMC9919699, “A Comprehensive Approach to Derivatization: Elemental Composition, Biochemical, and In Silico Studies of Metformin Derivatives Containing Copper and Zinc Complexes” (Molecules, 2023).
Where two headings read alike, the source gives them in different places.

Tests used:
α-amylase = α-amylase enzyme inhibition assay (starch, dinitro-salicylic acid, 540 nm); format: biochemical
Procedure: All derivatives of metformin were analyzed for serum amylase inhibitory activity using the Yukihoko Hara method. Three test tubes were labeled as blank (B), test (T), and control (C). Then, 2.5 mL of phosphate buffer (pH 6.8) was added to each test tube. Next, 1 mL of starch and 1 mL of 2 N sodium chloride solution were added to each test tube. The test tubes were incubated at 37 °C for 10 min. After incubation, 0.5 mL of derivatives was added to test tube T, followed by 0.2 mL of enzyme (α-amylase). All contents were mixed well, and then the tube was incubated at 37 °C for 10 min. In the control test tube, normal saline (2 N), starch solution (1 mL), and enzyme solution (0.2 mL) were added before incubating at 37 °C for 10 min. In the blank test tube, only 5.7 mL of distilled water was added. Dinitro-salicylic acid (0.2 mL) was added to all test tubes. The contents were mixed well, and the test tubes were kept in a boiling water bath for 15 min. The intensity of reddish orange was read at 540 nm. The percentage inhibitory action of serum amylase was calculated using the following formula:Percentage inhibition = OD of control − OD of test tube/OD of control × 100.

α-glucosidase = α-glucosidase enzyme inhibition assay (starch substrate, anthrone reagent, 640 nm); format: biochemical
Procedure: The α-glucosidase-inhibitory activity of all derivatives of metformin was tested using the method previously described. Three test tubes were marked as test (T), blank (B), and control (C). Then, 200 µL of substrate (starch) and enzyme (α-glucosidase) was added to test tubes T and C. The contents were mixed well, and then the test tubes were incubated at 37 °C for 30 min. After incubation, trichloroacetic acid was added to all test tubes, which were then centrifuged for 10 min. Free glucose was available after the reaction with anthrone reagent (1.5 mL). The contents in the test tubes were boiled for 15 min, and the absorbance was read at a wavelength at 640 nm. The percentage inhibition was calculated using the following formula:Percentage inhibition = OD of control − OD of test tube/OD of control × 100.

[1] = 250 µg/mL, Table 9 (MZn series)
[2] = 500 µg/mL, Table 9 (MZn series)
[3] = 1000 µg/mL, Table 9 (MZn series)
[4] = Table 9 (MZn series), read-out: IC50
[5] = 250 µg/mL, Table 6 (MZn series)
[6] = 500 µg/mL, Table 6 (MZn series)
[7] = 1000 µg/mL, Table 6 (MZn series)
[8] = Table 6 (MZn series), read-out: IC50
[9] = 250 µg/mL, Table 8 (MCu series)
[10] = 500 µg/mL, Table 8 (MCu series)
[11] = 1000 µg/mL, Table 8 (MCu series)
[12] = Table 8 (MCu series), read-out: IC50
[13] = 250 µg/mL, Table 5 (MCu series)
[14] = 500 µg/mL, Table 5 (MCu series)
[15] = 1000 µg/mL, Table 5 (MCu series)
[16] = Table 5 (MCu series), read-out: IC50

Row | Structure (SMILES) | % Inhibition (α-amylase; [1]) | % Inhibition (α-amylase; [2]) | % Inhibition (α-amylase; [3]) | IC50 (α-amylase; [4]) | % Inhibition (α-glucosidase; [5]) | % Inhibition (α-glucosidase; [6]) | % Inhibition (α-glucosidase; [7]) | % Inhibition (α-amylase; [9]) | % Inhibition (α-amylase; [10]) | % Inhibition (α-amylase; [11]) | IC50 (α-amylase; [12]) | % Inhibition (α-glucosidase; [13]) | % Inhibition (α-glucosidase; [14]) | % Inhibition (α-glucosidase; [15]) | IC50 (α-glucosidase; [16]) | also measured
1 | COc1cc(C=NC(=N)NC(=N)N(C)C)ccc1O.COc1cc(C=NC(=N)NC(=N)N(C)C)ccc1O.O.O.O.O.O.O=S(=O)([O-])[O-].[Zn+2] [MZn8] | 37.46 ± 0.23% | 68.50 ± 0.40% | 83.52 ± 0.40% | 900 µM | 49.24 ± 0.21% | 70.37 ± 0.25% | 81.54 ± 0.26% |  |  |  |  |  |  |  |  | IC50 (α-glucosidase): 511.4 µg/mL; IC50 (α-glucosidase; [8]): 650 µM
2 | C=NC(=N)NC(=N)N(C)C.C=NC(=N)NC(=N)N(C)C.O.O.O.O.O.O=S(=O)([O-])[O-].[Zn+2] [MZn4] | 15.55 ± 0.34% | 31.49 ± 0.28% | 54.44 ± 0.28% | 500 µM | 11.30 ± 0.15% | 13.59 ± 0.20% | 14.71 ± 0.26% |  |  |  |  |  |  |  |  | 
3 | CN(C)C(=N)NC(=N)N=Cc1ccccc1.CN(C)C(=N)NC(=N)N=Cc1ccccc1.O.O.O.O.O.O=S(=O)([O-])[O-].[Cu+2] [MCu1] |  |  |  |  |  |  |  | 19.44 ± 0.46% | 43.71 ± 0.17% | 73.31 ± 0.51% | 990 µM | 44.24 ± 0.10% | 61.46 ± 0.31% | 81.13 ± 0.08% | 600 µM | IC50 (α-glucosidase): 421.7 µg/mL
4 | C=NC(=N)NC(=N)N(C)C.C=NC(=N)NC(=N)N(C)C.O.O.O.O.O.O=S(=O)([O-])[O-].[Cu+2] [MCu4] |  |  |  |  |  |  |  | 19.48 ± 0.40% | 31.46 ± 0.23% | 48.32 ± 0.51% | 300 µM | 18.64 ± 0.07% | 31.28 ± 0.08% | 51.20 ± 0.18% | 500 µM | 
5 | CN(C)C(=N)NC(=N)N=CC=Cc1ccccc1.CN(C)C(=N)NC(=N)N=CC=Cc1ccccc1.O.O.O.O.O.O=S(=O)([O-])[O-].[Cu+2] [MCu3] |  |  |  |  |  |  |  | 25.41 ± 0.23% | 38.37 ± 0.40% | 69.40 ± 0.23% | 790 µM | 29.74 ± 0.08% | 49.26 ± 0.17% | 78.23 ± 0.17% | 570 µM | 
6 | CN(C)C(=N)NC(=N)N=C(c1ccccc1)C(O)c1ccccc1.CN(C)C(=N)NC(=N)N=C(c1ccccc1)C(O)c1ccccc1.O.O.O.O.O.O=S(=O)([O-])[O-].[Cu+2] (stereo not drawn) [MCu9] |  |  |  |  |  |  |  | 13.46 ± 0.23% | 34.66 ± 0.40% | 67.48 ± 0.40% | 130 µM | 15.23 ± 0.12% | 28.37 ± 0.20% | 49.49 ± 0.25% | 200 µM | 
7 | CN(C)C(=N)NC(=N)N=Cc1ccccc1O.CN(C)C(=N)NC(=N)N=Cc1ccccc1O.O.O.O.O.O.O=S(=O)([O-])[O-].[Zn+2] [MZn2] | 34.46 ± 0.23% | 69.32 ± 0.46% | 86.58 ± 0.40% | 670 µM | 43.55 ± 0.20% | 57.61 ± 0.15% | 71.37 ± 0.30% |  |  |  |  |  |  |  |  | IC50 (α-amylase): 484.9 µg/mL; IC50 (α-glucosidase; [8]): 600 µM
8 | C/C(=N\C(=N)NC(=N)N(C)C)c1ccccc1 [Met6, N,N-dimethyl-N′-[(1E)-1-phenylethylidene]triimidodicarbonic diamide] |  |  |  |  |  |  |  |  |  |  |  |  |  |  |  | % Inhibition (α-amylase; 250 µg/mL, Table 7 (Met series)): 18.48 ± 0.26%; % Inhibition (α-amylase; 500 µg/mL, Table 7 (Met series)): 33.35 ± 0.20%; % Inhibition (α-amylase; 1000 µg/mL, Table 7 (Met series)): 41.34 ± 0.17%; IC50 (α-amylase; Table 7 (Met series), read-out: IC50): 1700 µM; % Inhibition (α-glucosidase; 250 µg/mL, Table 4 (Met series)): 16.41 ± 0.19%; % Inhibition (α-glucosidase; 500 µg/mL, Table 4 (Met series)): 28.86 ± 0.15%; % Inhibition (α-glucosidase; 1000 µg/mL, Table 4 (Met series)): 51.47 ± 0.26%; IC50 (α-glucosidase; Table 4 (Met series), read-out: IC50): 1300 µM
